{
  "source": "paper PMC6296175",
  "about": "“Oxidative stress‐induced structural changes in the microtubule‐associated flavoenzyme Irc15p from Saccharomyces cerevisiae” (Protein Science : A Publication of the Protein Society, 2018)",
  "molecules": {"B1": {"name": "Irc15p (increased recombination centers 15) (enzyme, S. cerevisiae, UniProt Q02733 1-499, looked up)", "chain": "MGGEDEILSTMEDFAAVYDVLVIGCGPGGFTAAMQASQAGLLTACVDQRASLGGAYLVDGAVPSKTLLYESYLYRLLQQQELIEQRGTRLFPAKFDMQAAQSALKHNIEELGNVYKRELSKNNVTVYKGTAAFKDPHHVEIAQRGMKPFIVEAKYIVVATGSAVIQCPGVAIDNDKIISSDKALSLDYIPSRFTIMGGGTIGLEIACIFNNLGSRVTIVESQSEICQNMDNELASATKTLLQCQGIAFLLDTRVQLAEADAAGQLNITLLNKVSKKTYVHHCDVLMVSIGRRPLLKGLDISSIGLDERDFVENVDVQTQSLLKYPHIKPIGDVTLGPMLALKAEEQAIRAIQSIGCTGSDGTSNCGFPPNVLYCQPQIGWVGYTEEGLAKARIPYQKGRVLFSQNVRYNTLLPREENTTVSPFIKVLIDSRDMKILGVHMINDDANELLSQASMAVSLGLTAHDVCKVPFPHPSLSESFKQAVQLAMANGTSPGVHVRE", "notes": "The forward primer carries the start ATG; Homodimer with one FAD per protomer; this was read from the printed primers; source: E. coli Rosetta (DE3), pET21d(+)IRC15, purified (Ni-NTA HisTrap HP; for SAXS also size exclusion chromatography)"}},
  "key": {"[1]": {"biological_target": "T1, Irc15p (Saccharomyces cerevisiae, UniProt Q02733)", "T1 construct": "gene IRC15; E. coli Rosetta (DE3); ~55 kDa subunit, homodimer ~113-115 kDa, one FAD per protomer", "T1 sequence (Q02733 1-499)": "B1 chain", "assay": "HPLC of flavin released from denatured protein; UV-Vis absorption", "type": "binding", "details": "co-purified; lysis buffer supplemented with 10 μM FAD; one FAD per protomer"}, "[2]": {"biological_target": "T1, Irc15p", "assay": "thermal shift assay (SYPRO Orange)", "type": "binding", "details": "50 mM HEPES, 50 mM NaCl, 1 mM DTT, pH 7.0, absolute Tm, compare ligand-free control in the 4th table, row 3", "source_text": "thermal shift assay (SYPRO Orange) on Irc15p"}, "[3]": {"biological_target": "T1, Irc15p", "assay": "stopped-flow reductive half-reaction, flavin absorption at […] nm, hyperbolic fit of rate", "type": "biochemical", "details": "anoxic; 50 mM HEPES, 50 mM NaCl, 1 mM DTT, pH 7.0; 4 °C; pre-steady-state; read-out: dissociation constant"}, "[4]": {"biological_target": "the molecule itself", "assay": "SEC; analytical size exclusion chromatography, Superdex 200 10/300 GL, buffer A (50 mM HEPES, 150 mM NaCl, 1 mM DTT, pH 7.0), calibrated with molecular mass standards; elution monitored at 280 and 450 nm"}},
  "data": [
    {"molecule": "Cc1cc2nc3c(=O)[nH]c(=O)nc-3n(C[C@H](O)[C@H](O)[C@H](O)COP(=O)(O)OP(=O)(O)OC[C@H]3O[C@@H](n4cnc5c(N)ncnc54)[C@H](O)[C@@H]3O)c2cc1C", "note": "[FAD]", "values": [
      {"measurement": "HPLC of flavin released from denatured protein; UV-Vis absorption", "setting": "[1]", "value": "closely corresponding to the retention time of authentic FAD"}
    ]},
    {"molecule": "NC(=O)C1=CN([C@@H]2O[C@H](COP(=O)(O)OP(=O)(O)OC[C@H]3O[C@@H](n4cnc5c(N)ncnc54)[C@H](O)[C@@H]3O)[C@@H](O)[C@H]2O)C=CC1", "note": "[NADH]", "values": [
      {"measurement": "T m [°C]", "setting": "[2]; 50 mM NADH, ligand reduces the FAD", "value": 47, "unit": "°C"},
      {"measurement": "Kd", "setting": "[3]", "value": "100 ± 5", "unit": "µM"}
    ]},
    {"molecule": "NC(=O)C1=CN([C@@H]2O[C@H](COP(=O)(O)OP(=O)(O)OC[C@H]3O[C@@H](n4cnc5c(N)ncnc54)[C@H](OP(=O)(O)O)[C@@H]3O)[C@@H](O)[C@H]2O)C=CC1", "note": "[NADPH]", "values": [
      {"measurement": "T m [°C]", "setting": "[2]; 50 mM NADPH, ligand reduces the FAD", "value": 45, "unit": "°C"}
    ]},
    {"molecule": "NC(=O)c1ccc[n+]([C@@H]2O[C@H](COP(=O)(O)OP(=O)(O)OC[C@H]3O[C@@H](n4cnc5c(N)ncnc54)[C@H](O)[C@@H]3O)[C@@H](O)[C@H]2O)c1", "note": "[NAD^+]", "values": [
      {"measurement": "T m [°C]", "setting": "[2]; 50 mM NAD+", "value": 64, "unit": "°C"}
    ]},
    {"molecule": "B1", "values": [
      {"measurement": "stoichiometry N", "setting": "[4]", "value": 2}
    ]}
  ]
}
